Among the data in ChEMBL document CHEMBL1671860, “Role of Cj1211 in natural transformation and transfer of antibiotic resistance determinants in Campylobacter jejuni” (2008) are Activity and MIC values, retold here.

Molecules are shown by their SMILES. ≈ marks a conversion by molar mass, not a printed value. Calls of active or inactive are those of the source.

Test [1] deals with Campylobacter jejuni. Kind of test: Antibacterial activity against Campylobacter jejuni JB201 infected in chicken assessed as decrease in bacterial colonization at 50 mg/L. The format is functional, organism-based.
For test [2], the system named is Campylobacter. Kind of test: Antibacterial activity against Campylobacter by Etest. The test is classed as functional.
Test [3] relates to Campylobacter jejuni. In words: Antibacterial activity against Cj1211-negative Campylobacter jejuni harboring aphA3 and tet(O) genes. The test is classed as functional.
Test [4] concerns Campylobacter jejuni. In words: Antibacterial activity against Cj1211-positive Campylobacter jejuni harboring aphA3 and tet(O) genes. The test is classed as functional.

For the compound `CCN1CCN(c2cc3c(cc2F)c(=O)c(C(=O)O)cn3C2CC2)CC1`, the result in test [1] was Active.
`O=C(O)c1cn(C2CC2)c2cc(N3CCNCC3)c(F)cc2c1=O` [CIPROFLOXACIN]: the MIC (in general, the smallest concentration in the dilution series that meets the test's criterion for growth inhibition) in test [2] is greater than 32 µg/mL.
With `NC[C@H]1O[C@H](O[C@H]2[C@H](O)[C@@H](O[C@H]3O[C@H](CO)[C@@H](O)[C@H](N)[C@H]3O)[C@H](N)C[C@@H]2N)[C@H](O)[C@@H](O)[C@@H]1O` [KANAMYCIN], the MIC in test [3] and in test [4] was greater than 256 µg/mL in each case.
For `CN(C)[C@@H]1C(O)=C(C(N)=O)C(=O)[C@@]2(O)C(O)=C3C(=O)c4c(O)cccc4[C@@](C)(O)[C@H]3C[C@@H]12` [TETRACYCLINE], the MIC in test [3] and in test [4] was 16 µg/mL (≈ 36 µM) each time.
